Test results published in paper PMC8379256, “A xanthene derivative, DS20060511, attenuates glucose intolerance by inducing skeletal muscle-specific GLUT4 translocation in mice” (Communications Biology, 2021).
“And” between values parts separate entries of the source, which are not always exact repeats. Identical values can stand only once.

Columns and labels:
L6-GLUT4myc myotubes [1] = test: In vitro cellular 2-DG uptake in L6-GLUT4myc myotubes; format: cell-based, rat; settings: for Ratio: 2-DG uptake normalized to vehicle; for A - background / A: dpm: 2-DG uptake
Description: (§1) The L6-GLUT4myc rat myoblast cell line was obtained from Dr. Amira Klip and Dr. Philip Bilan, through a license granted by The Hospital for Sick Children, 555 University Avenue, Toronto, Ontario, Canada M5G 1 × 8; or purchased from Kerafast, Boston, MA (ESK202)[43]. The 3T3-L1-GLUT4myc fibroblast cell line was provided by Dr. Tomoyuki Yuasa, Tokushima University[44]. L6-GLUT4myc myoblasts were grown in MEMα (32571036, Thermo Fisher Scientific, Waltham, MA) supplemented with 10% FBS and 1% antibiotics, and then induced to differentiate into myotubes in MEMα supplemented with 2% FBS and 1% antibiotics for 5–8 days. 3T3-L1-GLUT4myc fibroblasts were induced to differentiate into adipocytes as described previously,[45] with minor modifications. Briefly, cells were grown to confluence in growth medium: DMEM (10569010, Thermo Fisher Scientific) supplemented with 10% FBS and 1% antibiotics, and then induced to differentiate into adipocytes in growth medium supplemented with 1 μM dexamethasone, 2 μM rosiglitazone, 0.5 mM isobutylmethylxanthine, and 10 μg mL^−1 insulin for 2 days. The adipocytes were then cultured in growth medium supplemented with 10 μg mL^−1 insulin for a few days before being used for the experiments.
(§2) L6-GLUT4myc myotubes and 3T3-L1-GLUT4myc adipocytes were incubated in the wells of a 24-well plate containing serum-free medium for 3 h at 37 °C and then incubated in glucose-free medium for 30 min at 37 °C. The cells were treated with the indicated concentrations of DS20060511 or insulin for 30 min at 37 °C, followed by the addition of 1 mM 2-deoxy-D-glucose (2-DG) and 0.3 μCi mL^−1 [^3H]-2-DG for 10 min. 2-DG uptake was measured with a liquid scintillation counter (Tri-Carb 2810TR, PerkinElmer, Waltham, MA) and normalized to the level in the vehicle-treated group.

[2] = tested on: 3T3-L1-GLUT4myc adipocytes; test: In vitro cellular 2-DG uptake in 3T3-L1-GLUT4myc adipocytes; format: cell-based; settings: for Ratio: 2-DG uptake normalized to vehicle; for A - background / A: dpm: 2-DG uptake
Description: as §1, §2

[3] = tested on: IRβ, IRS1, Akt (Ser473), AS160; test: Phosphorylation of IRβ, IRS1, Akt and AS160 in triceps surae muscle (immunoblot); format: in vivo, mouse; settings: skeletal muscle, DS20060511 10 mg kg−1 or insulin 5 U kg−1; for phosphorylation of IRβ-subunit and IRS1: Fig. 4a; for phosphorylation of Akt and AS160: Fig. 4b
Description: The tissue sample was homogenized with a Polytron homogenizer and lysed in a lysis buffer (25 mM Tris-HCl, pH 7.4, 100 mM NaF, 50 mM Na4P2O7, 10 mM EGTA, 10 mM EDTA, 10 mM Na3VO4, 1 mM PMSF, and 1% NP-40) on ice, and the lysate was centrifuged at 17,860 × g for 10 min at 4 °C. The supernatant was collected and the protein concentrations were determined by BCA assay (Thermo Fisher Scientific). Immunoprecipitation of IRβ and IRS1 was performed as described previously, using specific antibodies against IRβ (sc-711, Santa Cruz Biotechnology, Dallas, TX), IRS1 (06-248, Merck Millipore, Burlington, MA), and for detection of phosphotyrosine (05-321, Merck Millipore). Five milligrams of the extracts were incubated with specific antibodies against IRS1 for 1 h at 4 °C. Then, protein G-Sepharose was added, followed by incubation for 2 h at 4 °C. After washing three times, the immunocomplexes were subjected to immunoblotting.
Phosphorylated or total protein of IRβ and IRS1 was resolved on 7% SDS-PAGE and analyzed using specific antibodies against IRβ, IRS1, and phosphotyrosine. Analyses were also conducted for phosphorylated Akt (1:2000), Akt (1:2,000), AS160 (1:1,000), phospho-AS160 (1:1,000), AMPKα (1:1,000), phospho-AMPKα (1:1,000), GLUT4 (1:200), Na,K-ATPaseα (1:1,000), GAPDH (1:1,000) by immunoblotting with specific antibodies after the tissue lysates were resolved on SDS-PAGE and transferred to a PVDF membrane using Trans-Blot Turbo transfer system (Bio-Rad Laboratories, Hercules, CA). Bound antibodies were detected with HRP-conjugated secondary antibodies using ECL detection reagents (GE Healthcare, Chicago, IL).

L6-GLUT4myc myotubes [4] = test: GLUT4 translocation: cell surface GLUT4myc by anti-Myc antibody assay in L6-GLUT4myc myotubes; format: cell-based, rat; set-up: key to GLUT4 translocation: fold of vehicle-treated group; settings: for Ratio: GLUT4 translocation normalized to vehicle; for A - background / A: Abs. (450 nm): GLUT4 translocation
Description: as §1
Cell surface GLUT4 levels in the L6-GLUT4myc myoblasts and myotubes were determined by antibody binding assay as described previously[43],[44], with minor modifications. Briefly, cells in a 96- or 24-well plate were starved in serum-free MEMα (0.1% BSA and 1% antibiotics) for 3 h and then treated with the indicated concentrations of DS20060511 and/or insulin for 30 min at 37 °C. After fixation with 4% paraformaldehyde, the cells were incubated with 1% glycine in PBS at 4 °C for 10 min, and blocked with 10% normal goat serum and 3% BSA in PBS at 4 °C for 30 min. The cells were then incubated with anti-c-Myc antibody (sc-40, 1:500) diluted with blocking buffer at 4 °C for 1 h, washed with cold PBS(+), incubated with HRP-conjugated anti-mouse IgG diluted with blocking buffer at 4 °C for 30 min, and then washed again. SuperSignal ELISA Pico Chemiluminescent Substrate (Thermo Fisher Scientific) was added and the luminescent signal was measured. To investigate GLUT4 translocation in the 3T3-L1-GLUT4myc adipocytes, the cells were prepared in a 24-well plate, and anti-c-Myc antibody (sc-789, 1:1000), HRP-conjugated anti-rabbit IgG and SIGMAFAST OPD regent (Sigma–Aldrich) were added for optical detection of the cell surface GLUT4myc levels. The GLUT4 translocation activity was normalized to that in the vehicle-treated group.

COc1ccc2c(C)c(C(=O)O)ccc2c1C1C2=C(CC(C)(C)CC2=O)OC2=C1C(=O)CC(C)(C)C2 [DS20060511]
Ratio (L6-GLUT4myc myotubes [1]; DS20060511 0.1 μM): 1.12 and 1.13 and 1.11 | Ratio (L6-GLUT4myc myotubes [1]; DS20060511 1 μM): 1.53 and 1.44 and 1.45 | Ratio (L6-GLUT4myc myotubes [1]; DS20060511 10 μM): 1.59 and 1.82 and 1.79 | A - background (L6-GLUT4myc myotubes [1]; DS20060511 0.1 μM): 1376 dpm and 1354 dpm and 1361 dpm | A: dpm (L6-GLUT4myc myotubes [1]; DS20060511 0.1 μM): 1481 dpm and 1459 dpm and 1466 dpm | A - background (L6-GLUT4myc myotubes [1]; DS20060511 1 μM): 1752 dpm and 1767 dpm and 1863 dpm | A: dpm (L6-GLUT4myc myotubes [1]; DS20060511 1 μM): 1857 dpm and 1872 dpm and 1968 dpm | A - background (L6-GLUT4myc myotubes [1]; DS20060511 10 μM): 2208 dpm and 2181 dpm and 1933 dpm | A: dpm (L6-GLUT4myc myotubes [1]; DS20060511 10 μM): 2313 dpm and 2286 dpm and 2038 dpm | 2-DG uptake (in words) (L6-GLUT4myc myotubes [1]; L6-GLUT4myc myotubes, Fig. 1d): significantly increased 2-DG uptake in a concentration-dependent manner | Ratio ([2]; DS20060511 0.1 μM): 1.50 and 1.09 and 1.18 | Ratio ([2]; DS20060511 1 μM): 1.43 and 1.24 and 1.47 | Ratio ([2]; DS20060511 10 μM): 1.53 and 1.62 and 1.75 | A - background ([2]; DS20060511 0.1 μM): 846 dpm and 912 dpm and 1164 dpm | A: dpm ([2]; DS20060511 0.1 μM): 1342 dpm and 1408 dpm and 1660 dpm | A - background ([2]; DS20060511 1 μM): 957 dpm and 1138 dpm and 1108 dpm | A: dpm ([2]; DS20060511 1 μM): 1453 dpm and 1634 dpm and 1604 dpm | A - background ([2]; DS20060511 10 μM): 1255 dpm and 1357 dpm and 1185 dpm | A: dpm ([2]; DS20060511 10 μM): 1751 dpm and 1853 dpm and 1681 dpm | phosphorylation of IRβ-subunit and IRS1 [3]: no such phosphorylation of these proteins was observed | phosphorylation of Akt and AS160 [3]: no such effect | GLUT4 translocation on co-treatment with insulin (L6-GLUT4myc myotubes [4]; 30 μM DS20060511 plus insulin, also at saturating insulin concentration, Fig. 4e): additive increase of GLUT4 translocation | GLUT4 translocation (L6-GLUT4myc myotubes [4]; DS20060511 30 μM, Latrunculin B 0 nM, normalized to vehicle): 1.94 and 1.98 and 1.81 | GLUT4 translocation (L6-GLUT4myc myotubes [4]; DS20060511 30 μM, Latrunculin B 10 nM): 2.29 and 2.23 and 2.10 | GLUT4 translocation (L6-GLUT4myc myotubes [4]; DS20060511 30 μM, Latrunculin B 30 nM): 1.81 and 2.08 and 1.91 | GLUT4 translocation (L6-GLUT4myc myotubes [4]; DS20060511 30 μM, Latrunculin B 100 nM): 2.37 and 2.30 and 2.39 | GLUT4 translocation (L6-GLUT4myc myotubes [4]; DS20060511 30 μM, Latrunculin B 200 nM): 2.39 and 2.15 and 2.06 | Ratio (L6-GLUT4myc myotubes [4]; DS20060511 0.1 μM): 1.26 and 1.33 | Ratio (L6-GLUT4myc myotubes [4]; DS20060511 1 μM): 1.71 and 1.72 and 1.90 | Ratio (L6-GLUT4myc myotubes [4]; DS20060511 10 μM): 2.15 and 2.14 and 2.27 | A - background (L6-GLUT4myc myotubes [4]; DS20060511 0.1 μM): 0.100 and 0.106 | A - background (L6-GLUT4myc myotubes [4]; DS20060511 1 μM): 0.137 and 0.151 and 0.136 | A: Abs. (450 nm) (L6-GLUT4myc myotubes [4]; DS20060511 1 μM): 0.227 and 0.241 and 0.226 | A - background (L6-GLUT4myc myotubes [4]; DS20060511 10 μM): 0.170 and 0.180 and 0.171 | A: Abs. (450 nm) (L6-GLUT4myc myotubes [4]; DS20060511 10 μM): 0.260 and 0.270 and 0.261 | GLUT4 translocation (in words) (L6-GLUT4myc myotubes [4]; differentiated L6-GLUT4myc myotubes, Fig. 1b): increased GLUT4 translocation in differentiated L6-GLUT4myc myotubes in a concentration-dependent manner

Insulin: Insulin (Humulin, Eli Lilly) in the in vivo experiments; Insulin solution human (I9278, Sigma–Aldrich) in the in vitro experiments
Ratio (L6-GLUT4myc myotubes [1]; Insulin 1 nM): 1.26 and 1.31 and 1.36 | Ratio (L6-GLUT4myc myotubes [1]; Insulin 10 nM): 1.62 and 1.58 and 1.67 | Ratio (L6-GLUT4myc myotubes [1]; Insulin 100 nM): 1.81 and 1.94 and 2.02 | A - background (L6-GLUT4myc myotubes [1]; Insulin 1 nM): 1594 dpm and 1651 dpm and 1530 dpm | A: dpm (L6-GLUT4myc myotubes [1]; Insulin 1 nM): 1699 dpm and 1756 dpm and 1635 dpm | A - background (L6-GLUT4myc myotubes [1]; Insulin 10 nM): 1918 dpm and 2031 dpm and 1966 dpm | A: dpm (L6-GLUT4myc myotubes [1]; Insulin 10 nM): 2023 dpm and 2136 dpm and 2071 dpm | A - background (L6-GLUT4myc myotubes [1]; Insulin 100 nM): 2363 dpm and 2459 dpm and 2203 dpm | A: dpm (L6-GLUT4myc myotubes [1]; Insulin 100 nM): 2468 dpm and 2564 dpm and 2308 dpm | Ratio ([2]; Insulin 1 nM): 12.31 and 11.72 and 12.41 | Ratio ([2]; Insulin 10 nM): 13.43 and 13.26 and 13.52 | Ratio ([2]; Insulin 100 nM): 12.21 and 13.79 and 13.94 | A - background ([2]; Insulin 1 nM): 9081 dpm and 9610 dpm and 9537 dpm | A: dpm ([2]; Insulin 1 nM): 9577 dpm and 10106 dpm and 10033 dpm | A - background ([2]; Insulin 10 nM): 10270 dpm and 10470 dpm and 10402 dpm | A: dpm ([2]; Insulin 10 nM): 10766 dpm and 10966 dpm and 10898 dpm | A - background ([2]; Insulin 100 nM): 10682 dpm and 10795 dpm and 9457 dpm | A: dpm ([2]; Insulin 100 nM): 11178 dpm and 11291 dpm and 9953 dpm | 2-DG uptake (in words) ([2]; differentiated 3T3-L1-GLUT4myc adipocytes, Fig. 1e): increase 2-DG uptake | phosphorylation of IRβ-subunit and IRS1 [3]: phosphorylated | phosphorylation of Akt and AS160 [3]: induced phosphorylation of Akt and AS160 | Ratio (L6-GLUT4myc myotubes [4]; Insulin 1 nM): 1.41 and 1.40 and 1.33 | Ratio (L6-GLUT4myc myotubes [4]; Insulin 10 nM): 1.91 and 1.96 and 1.84 | Ratio (L6-GLUT4myc myotubes [4]; Insulin 100 nM): 2.47 and 2.48 and 2.46 | A - background (L6-GLUT4myc myotubes [4]; Insulin 1 nM): 0.111 and 0.106 and 0.112 | A: Abs. (450 nm) (L6-GLUT4myc myotubes [4]; Insulin 1 nM): 0.201 and 0.196 and 0.202 | A - background (L6-GLUT4myc myotubes [4]; Insulin 10 nM): 0.156 and 0.146 and 0.152 | A: Abs. (450 nm) (L6-GLUT4myc myotubes [4]; Insulin 10 nM): 0.246 and 0.236 and 0.242 | A - background (L6-GLUT4myc myotubes [4]; Insulin 100 nM): 0.196 and 0.194 and 0.195 | GLUT4 translocation (L6-GLUT4myc myotubes [4]; Insulin 100 nM, Latrunculin B 0 nM, normalized to vehicle): 3.11 and 3.04 and 3.07 | GLUT4 translocation (L6-GLUT4myc myotubes [4]; Insulin 100 nM, Latrunculin B 10 nM): 3.38 and 3.09 and 3.08 | GLUT4 translocation (L6-GLUT4myc myotubes [4]; Insulin 100 nM, Latrunculin B 30 nM): 2.53 and 2.30 and 2.42 | GLUT4 translocation (L6-GLUT4myc myotubes [4]; Insulin 100 nM, Latrunculin B 100 nM): 2.62 and 2.09 and 2.39 | GLUT4 translocation (L6-GLUT4myc myotubes [4]; Insulin 100 nM, Latrunculin B 200 nM): 2.01 and 1.93
